Reference: ChEMBL document CHEMBL4373747 (ACS Med Chem Lett, 2020)
Activity calls are given as the source filed them. The calls are words filed in the database; no cut-off is given here.

How the values were obtained:
[1] = biological target: T1, Protein deacetylase HDAC6 (Homo sapiens, UniProt Q9UBN7); test: Inhibition of recombinant full length human HDAC6 expressed in baculovirus infected Sf9 cells using FAM-RHKK-Ac as substrate incubated for 5 hrs by electrophoretic mobility shift assay
T1 sequence (Q9UBN7 whole entry): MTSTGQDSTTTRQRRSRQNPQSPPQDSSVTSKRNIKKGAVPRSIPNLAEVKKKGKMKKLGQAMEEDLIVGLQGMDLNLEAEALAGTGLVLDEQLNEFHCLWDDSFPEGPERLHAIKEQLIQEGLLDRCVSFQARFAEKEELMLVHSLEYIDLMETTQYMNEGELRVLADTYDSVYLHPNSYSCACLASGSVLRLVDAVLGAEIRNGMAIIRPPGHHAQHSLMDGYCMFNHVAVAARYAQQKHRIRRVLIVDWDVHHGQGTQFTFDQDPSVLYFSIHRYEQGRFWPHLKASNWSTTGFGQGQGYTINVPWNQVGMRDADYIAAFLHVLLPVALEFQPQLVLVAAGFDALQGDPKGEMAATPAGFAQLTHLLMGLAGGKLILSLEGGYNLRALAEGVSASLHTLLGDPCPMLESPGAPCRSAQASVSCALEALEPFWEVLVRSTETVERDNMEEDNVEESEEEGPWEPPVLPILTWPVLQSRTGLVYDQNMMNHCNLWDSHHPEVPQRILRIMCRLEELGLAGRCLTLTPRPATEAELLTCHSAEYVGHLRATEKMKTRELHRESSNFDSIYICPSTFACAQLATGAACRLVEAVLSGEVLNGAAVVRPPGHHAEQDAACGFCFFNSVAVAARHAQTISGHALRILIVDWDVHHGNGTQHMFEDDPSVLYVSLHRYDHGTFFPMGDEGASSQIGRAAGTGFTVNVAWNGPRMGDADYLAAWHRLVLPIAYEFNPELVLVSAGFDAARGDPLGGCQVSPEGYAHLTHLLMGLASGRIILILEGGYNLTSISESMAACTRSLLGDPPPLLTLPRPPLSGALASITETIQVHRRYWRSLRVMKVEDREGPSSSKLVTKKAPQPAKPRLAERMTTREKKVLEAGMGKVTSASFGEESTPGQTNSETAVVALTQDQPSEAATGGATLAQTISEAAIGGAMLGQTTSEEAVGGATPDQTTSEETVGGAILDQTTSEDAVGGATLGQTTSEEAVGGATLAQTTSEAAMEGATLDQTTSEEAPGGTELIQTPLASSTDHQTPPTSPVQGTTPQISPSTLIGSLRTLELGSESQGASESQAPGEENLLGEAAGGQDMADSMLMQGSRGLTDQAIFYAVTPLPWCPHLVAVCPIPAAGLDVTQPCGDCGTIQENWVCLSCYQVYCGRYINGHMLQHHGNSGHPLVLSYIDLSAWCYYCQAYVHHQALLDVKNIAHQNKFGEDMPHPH

[2] = biological target: T1, Protein deacetylase HDAC6; test: Inhibition of recombinant full length human HDAC6 expressed in baculovirus infected Sf9 cells assessed as inhibitory constant using FAM-RHKK-Ac as substrate incubated for 5 hrs by electrophoretic mobility shift assay
MDA-MB-468 = test: Cytotoxicity against human MDA-MB-468 cells assessed as reduction in cell viability incubated for 72 hrs by cell-titer blue assay; assay type: functional, cell-based; conditions: MDA-MB-468, 72 h
Histone deacetylase 4 = Histone deacetylase 4 (Homo sapiens, UniProt P56524); test: Inhibition of recombinant full length human HDAC4 expressed in baculovirus infected Sf9 cells using FAM-RHKK-TFAc as substrate incubated for 1.5 hrs by electrophoretic mobility shift assay
Histone deacetylase 5 = Histone deacetylase 5 (Homo sapiens, UniProt Q9UQL6); test: Inhibition of recombinant full length human HDAC5 expressed in baculovirus infected Sf9 cells using FAM-RHKK-TFAc as substrate incubated for 3 hrs by electrophoretic mobility shift assay
Histone deacetylase 7 = biological target: T2, Histone deacetylase 7 (Homo sapiens, UniProt Q8WUI4); test: Inhibition of recombinant full length human HDAC7 expressed in baculovirus infected Sf9 cells using FAM-RHKK-TFAc as substrate incubated for 3 hrs by electrophoretic mobility shift assay
T2 sequence (Q8WUI4 whole entry): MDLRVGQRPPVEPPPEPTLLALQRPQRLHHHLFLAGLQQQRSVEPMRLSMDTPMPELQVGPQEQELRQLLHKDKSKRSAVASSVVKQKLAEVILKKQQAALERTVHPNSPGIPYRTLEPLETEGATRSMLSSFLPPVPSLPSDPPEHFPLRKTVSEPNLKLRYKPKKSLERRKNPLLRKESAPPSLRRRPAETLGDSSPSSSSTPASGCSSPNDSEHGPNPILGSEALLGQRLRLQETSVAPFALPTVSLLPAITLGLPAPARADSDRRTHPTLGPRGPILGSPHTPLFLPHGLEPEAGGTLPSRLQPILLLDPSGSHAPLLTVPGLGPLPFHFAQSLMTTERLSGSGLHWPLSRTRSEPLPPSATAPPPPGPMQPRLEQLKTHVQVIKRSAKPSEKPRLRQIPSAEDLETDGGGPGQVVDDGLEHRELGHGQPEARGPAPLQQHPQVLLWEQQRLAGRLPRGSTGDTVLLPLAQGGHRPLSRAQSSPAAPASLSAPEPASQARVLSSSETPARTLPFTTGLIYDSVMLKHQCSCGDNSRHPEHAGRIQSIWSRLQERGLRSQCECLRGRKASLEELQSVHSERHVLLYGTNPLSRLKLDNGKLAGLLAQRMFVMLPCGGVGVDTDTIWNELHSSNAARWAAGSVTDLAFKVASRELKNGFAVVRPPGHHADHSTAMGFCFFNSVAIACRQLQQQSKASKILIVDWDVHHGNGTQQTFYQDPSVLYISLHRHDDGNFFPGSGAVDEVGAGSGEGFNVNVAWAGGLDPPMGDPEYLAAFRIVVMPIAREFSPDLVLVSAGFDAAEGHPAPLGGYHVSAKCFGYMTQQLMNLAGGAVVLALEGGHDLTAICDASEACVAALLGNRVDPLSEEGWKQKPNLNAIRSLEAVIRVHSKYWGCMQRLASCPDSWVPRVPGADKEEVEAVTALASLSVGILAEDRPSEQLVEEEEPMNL

MV4-11 [3] = test: Induction of apoptosis in human MV4-11 cells assessed as late apoptotic cells at 0.25 uM incubated for 18 hrs by annexin V FITC and PI based flow cytometry (reference value: 9.2 to 9.63 %); assay type: functional
MV4-11 [4] = test: Induction of apoptosis in human MV4-11 cells assessed as viable cells at 2 uM incubated for 18 hrs by annexin V FITC and PI based flow cytometry (reference value: 53.01 to 53.07 %); assay type: functional; conditions: Homo sapiens, MV4-11, 18 h; read-out: Activity
[5] = Stability in CD-1 mouse hepatocytes assessed as compound remaining at 1 uM measured up to 6 hrs by LCMS analysis; assay type: ADME, cell-based, Hepatocyte; conditions: mouse, 6 h, 1 µM
[6] = biological target: Histone deacetylase (Homo sapiens) (UniProt Q13547+O15379+Q9UBN7+Q92769+Q9UQL6+Q8WUI4+Q9BY41+Q96DB2+P56524+Q9UKV0+Q969S8); test: Inhibition of HDAC in human MV4-11 cells assessed as […] in acetylated histone H3 at 0.1 to 10 uM incubated for 6 hrs by Western blot analysis; assay type: cell-based
[7] = Half life in NSG mouse; assay type: ADME; conditions: in vivo

Sequence of Histone deacetylase 4 (P56524 whole entry): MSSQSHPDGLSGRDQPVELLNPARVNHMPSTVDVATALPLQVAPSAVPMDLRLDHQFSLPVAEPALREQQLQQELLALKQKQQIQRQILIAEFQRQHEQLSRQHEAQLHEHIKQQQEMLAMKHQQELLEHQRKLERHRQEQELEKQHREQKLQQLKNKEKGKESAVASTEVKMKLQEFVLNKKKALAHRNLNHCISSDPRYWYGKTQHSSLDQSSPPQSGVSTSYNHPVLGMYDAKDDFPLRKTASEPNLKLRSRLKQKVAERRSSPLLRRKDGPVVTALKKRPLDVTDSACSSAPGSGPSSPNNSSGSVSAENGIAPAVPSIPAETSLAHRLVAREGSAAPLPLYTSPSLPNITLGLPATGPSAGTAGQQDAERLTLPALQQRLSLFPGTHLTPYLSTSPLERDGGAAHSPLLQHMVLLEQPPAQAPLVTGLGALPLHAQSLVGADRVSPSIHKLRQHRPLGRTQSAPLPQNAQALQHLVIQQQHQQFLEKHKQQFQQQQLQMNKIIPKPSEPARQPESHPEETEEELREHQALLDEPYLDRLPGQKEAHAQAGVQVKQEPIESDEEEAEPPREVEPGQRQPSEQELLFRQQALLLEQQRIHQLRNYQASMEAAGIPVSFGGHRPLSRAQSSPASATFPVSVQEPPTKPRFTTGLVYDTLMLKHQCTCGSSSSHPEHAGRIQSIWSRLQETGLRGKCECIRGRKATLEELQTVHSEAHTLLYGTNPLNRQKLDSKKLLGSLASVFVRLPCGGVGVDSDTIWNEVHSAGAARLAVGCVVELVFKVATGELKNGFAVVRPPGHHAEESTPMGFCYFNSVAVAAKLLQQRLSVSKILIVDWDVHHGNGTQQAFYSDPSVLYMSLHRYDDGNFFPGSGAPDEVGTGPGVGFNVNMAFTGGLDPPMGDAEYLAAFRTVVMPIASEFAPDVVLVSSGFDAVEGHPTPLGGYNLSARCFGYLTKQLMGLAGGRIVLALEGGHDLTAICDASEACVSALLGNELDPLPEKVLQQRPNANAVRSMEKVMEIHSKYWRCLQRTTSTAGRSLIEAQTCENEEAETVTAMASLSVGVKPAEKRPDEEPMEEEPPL
Sequence of Histone deacetylase 5 (Q9UQL6 whole entry): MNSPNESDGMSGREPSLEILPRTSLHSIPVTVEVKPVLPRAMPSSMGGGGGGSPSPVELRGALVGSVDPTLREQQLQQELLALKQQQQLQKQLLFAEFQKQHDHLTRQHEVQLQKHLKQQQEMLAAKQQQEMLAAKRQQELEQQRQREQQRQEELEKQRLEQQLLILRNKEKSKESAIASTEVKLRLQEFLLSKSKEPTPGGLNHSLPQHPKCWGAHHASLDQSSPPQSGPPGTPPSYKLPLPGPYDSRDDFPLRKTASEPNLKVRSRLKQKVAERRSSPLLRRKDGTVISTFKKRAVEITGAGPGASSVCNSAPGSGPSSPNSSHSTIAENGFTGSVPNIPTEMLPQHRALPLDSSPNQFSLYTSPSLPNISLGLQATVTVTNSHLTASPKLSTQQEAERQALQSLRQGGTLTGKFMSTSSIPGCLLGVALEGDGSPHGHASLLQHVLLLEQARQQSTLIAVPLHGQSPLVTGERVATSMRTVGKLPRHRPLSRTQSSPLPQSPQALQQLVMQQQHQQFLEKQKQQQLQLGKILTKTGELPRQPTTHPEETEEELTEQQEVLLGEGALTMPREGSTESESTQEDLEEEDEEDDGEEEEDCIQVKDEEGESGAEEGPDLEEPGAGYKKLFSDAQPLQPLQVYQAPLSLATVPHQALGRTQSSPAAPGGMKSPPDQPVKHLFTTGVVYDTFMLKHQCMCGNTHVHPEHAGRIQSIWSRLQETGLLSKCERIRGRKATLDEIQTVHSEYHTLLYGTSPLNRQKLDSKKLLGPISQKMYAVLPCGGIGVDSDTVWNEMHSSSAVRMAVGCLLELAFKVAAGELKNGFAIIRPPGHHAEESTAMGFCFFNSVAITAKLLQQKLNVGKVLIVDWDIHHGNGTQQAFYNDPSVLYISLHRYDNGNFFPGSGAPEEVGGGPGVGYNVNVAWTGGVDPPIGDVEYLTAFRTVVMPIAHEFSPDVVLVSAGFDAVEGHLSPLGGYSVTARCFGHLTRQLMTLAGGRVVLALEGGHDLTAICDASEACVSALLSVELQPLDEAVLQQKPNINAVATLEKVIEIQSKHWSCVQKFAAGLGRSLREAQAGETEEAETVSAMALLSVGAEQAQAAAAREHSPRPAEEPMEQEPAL

CC(C)(C)c1ccc(C(=O)Nc2ccc(C(=O)NO)cc2)cc1
IC50 [1]: 24.4 nM | Ki [2]: 35 nM | IC50 (MDA-MB-468): > 50000 nM | IC50 (Histone deacetylase 4): > 1000 nM | IC50 (Histone deacetylase 5): > 1000 nM | IC50 (Histone deacetylase 7): > 1000 nM | Activity (MV4-11 [3]): 8.74% | viability at 2 µM (MV4-11 [4]): 22.1% | Stability [5]: 20% | inhibition [6]: Active | half-life [7]: 5 h
